Reference: patent US6844020B2, “Solutions of carotenoids for use in foods and personal care products” (Kemin Foods, L.C., priority 2002, dated 2005)
Where “and” joins values, the source holds several entries; their conditions need not be identical. Identical values can stand only once. Like-named read-outs stand apart in the source and are kept apart here.

How the values were obtained:
[1] = Stability of lutein dry cake in essential oils; type: physicochemical; settings: 20 weeks; for trans lutein dropped: accelerated conditions (40° C.); for lutein lost: ambient (25° C.)
Method: Stability experiments were performed with the best group of essential oils and lutein dry cake. Fresh samples were made, placed in amber vials, blanked with argon and placed onto stability at 25° C. and 40° C. after taking initial % carotenoids and % lutein. Bay, cornmint, peppermint, spearmint, tea tree, pure thyme, red thyme, and white thyme oils were all tested up to 20 weeks. FIGS. 1 and 2 show total carotenoids at ambient and FIGS. 3 and 4 show all trans lutein at ambient conditions. Tea tree oil and bay oil had the best stability of total carotenoids and all trans lutein at ambient conditions. Tea tree lost 32% lutein and pure thyme lost 22% lutein after 20 weeks. It should be noted that the oils were not tested at maximum lutein solubility conditions for stability testing.
FIGS. 5 and 6 show the same set of experiments for total carotenoids at accelerated conditions. FIGS. 7 and 8 show all trans lutein at accelerated conditions. Under accelerated conditions, bay oil, red thyme and pure thyme fared the best for total carotenoids and lutein. Bay oil trans lutein dropped 54% and pure/red thyme oil trans lutein dropped approximately 47% at 20 weeks. It seems the biggest drop occurs during the first 2-week time point then it levels off. All other oils did much worse.

[2] = Lutein solubility in essential oils; type: physicochemical
Method: Lutein dry cake was dissolved in each oil until visibly saturated. The sample was then blanketed with argon and sonicated for ten minutes. If the all the lutein appeared to go into solution, more was added and the process repeated. After the sample was completely saturated, the sample was transferred to a microcentrifuge tube and centrifuged at 14,000 rpm for 10 minutes. If the lutein was not pelleted by centrifugation, the sample was passed through a 0.22 μm filter unit to remove any suspended lutein. The clarified oil was then analyzed for lutein content using UV-VIS and HPLC.
Lutein content was measured by using an analytical method as follows. Using an analytical balance, 10-20 mg of the sample is weighed into a 100 ml volumetric flask. The sample is diluted to the mark with HEAT (10:6:7:7 v:v:v:v hexane:ethanol:acetone:toluene), and the mixture is agitated or stirred until the sample is dissolved. One ml of this solution is transferred by pipette into a 100 ml amber volumetric flask and diluted to the mark with ethanol. The absorbance of the ethanol solution is measured at 446 nm on a UV/Vis spectrophotometer that has previously been zeroed against ethanol. For analysis by HPLC, 1 ml of the ethanol solution is transferred to an HPLC sample vial and dried using a nitrogen or argon gas stream. The dried sample is dissolved in 1 ml of HPLC mobile phase; sonication may be necessary to complete the solution. The HPLC instrument is set with the following parameters: the column is a 25 cm×4.6 mm nitrile bonded Spherisorb with 5 μm particles; 69 minute run time; flow rate of 1.00 ml/min; back pressure of 64 bar; injection volume of 50 μl; solvent of 75:25:0.35:0.1 (v:v:v:v) hexane/methylene chloride/methanol/diisopropylethylamine (all solvents are HPLC grade); detector is a visible lamp set to 446 nm; and temperature is 22° C. Fifty μl of the ethanol solution is injected into the HPLC column. The peaks at approximately 24, 26, 28.5, 32, 34, 40 and 42 minutes (corresponding to 13, 13′-di-cis-lutein, all-trans-lutein, all-trans-zeaxanthin, 9-cis-lutein, 9′-cis-lutein, 13 and 13′-cis -lutein and 9-cis-zeaxanthin) are integrated and used to determine the HPLC percent area for the lutein peak. The following equations were used for the essential oils: [formula] [formula] [formula]
% Lutein=% Carotenoids*(% Total HPLC area of lutein/100)

[3] = cited from earlier work
[4] = consumption of lutein and zeaxanthin; Seddon et al., 1994; cited from earlier work

With `CC1=C[C@H](O)CC(C)(C)[C@H]1/C=C/C(C)=C/C=C/C(C)=C/C=C/C=C(C)/C=C/C=C(C)/C=C/C1=C(C)C[C@@H](O)CC1(C)C` [Lutein, lutein] the trans lutein dropped ([1]; in bay oil) was 54%, the lutein lost ([1]; in pure thyme oil) was 22% and the trans lutein dropped ([1]; in pure/red thyme oil) was “approximately 47%”. For the same compound, the lutein lost ([1]; in tea tree oil) was 32%, the “% Lutein” value ([2]; in Almond oil, NOW Foods 7660) was 0.030% and the “% Lutein” value ([2]; in Aloe Vera LQX oil, Lebermuth 50-6010-11, lot Sample) was 0.028%. The “% Lutein” value ([2]; in Anise, Spanish oil, Lebermuth 50-6015-11, lot Sample) was 0.223%, the “% Lutein” value ([2]; in Apricot Kernel oil, NOW Foods 7665) was 0.035% and the “% Lutein” value ([2]; in Bay oil, Lebermuth 50-6025-01, lot BA41-0484) was 1% and 1.001%. The “% Lutein” value ([2]; in Bay oil, Lebermuth 50-6025-01, lot Sample) was 1.152%, the “% Lutein” value ([2]; in Bay oil, Spectrum Botanical EO6) was 1.327% and the “% Lutein” value ([2]; in Bergamot Mint oil, Lebermuth 50-6177-01, lot Sample) was 0.325%. The “% Lutein” value ([2]; in Birch, Sweet Southern oil, Lebermuth 50-6035-02, lot Sample) was 0.236%, the “% Lutein” value ([2]; in Cassia, redistilled oil, Lebermuth 50-6060-01, lot Sample) was 0.639% and the “% Lutein” value ([2]; in Castor oil, NOW Foods 7675) was 0.171%. For the same compound, the “% Lutein” value ([2]; in Cedarwood, Texas White oil, Lebermuth 50-6075-01, lot Sample) was 0.172%, the “% Lutein” value ([2]; in Cornmint, Redistilled oil, Lebermuth 50-6100-01, lot CR43-0155) was 0.951% and the “% Lutein” value ([2]; in Cornmint, Redistilled oil, Lebermuth 50-6100-01, lot Sample) was 1.163%. For the same compound, the “% Lutein” value ([2]; in Eucalyptus, 80/85 oil, Lebermuth 50-6105-02, lot Sample) was 0.672%, the “% Lutein” value ([2]; in Eugenol, Lebermuth 50-6110-01, lot Sample) was 0.517% and the “% Lutein” value ([2]; in Frankincense, Olibanum oil, Lebermuth 50-5100-01, lot Sample) was 0.243%. For the same compound, the “% Lutein” value ([2]; in Geranium (Rose), Egyptian oil, Lebermuth 50-6130-11, lot Sample) was 0.600%, the “% Lutein” value ([2]; in Grapefruit, White oil, Lebermuth 50-6140-01, lot Sample) was 0.071% and the “% Lutein” value ([2]; in Grapeseed oil, NOW Foods 7705) was 0.027%. For the same compound, the “% Lutein” value ([2]; in Juniperberry oil, Lebermuth 50-6150-02, lot Sample) was 0.140%, the “% Lutein” value ([2]; in Lemon, California oil, Lebermuth 50-6160-01, lot Sample) was 0.071% and the “% Lutein” value ([2]; in Lime, distilled oil, Lebermuth 50-6170-01, lot Sample) was 0.213%. For the same compound, the “% Lutein” value ([2]; in Nutmeg oil, Lebermuth 50-6190-01, lot Sample) was 0.122%, the “% Lutein” value ([2]; in Peppermint oil, Spectrum Botanical EO64) was 1.358% and the “% Lutein” value ([2]; in Peppermint, Yakima redistilled oil, Lebermuth 50-6225-21, lot PY43-0157) was 0.945%. For the same compound, the “% Lutein” value ([2]; in Peppermint, Yakima redistilled oil, Lebermuth 50-6225-21, lot Sample) was 1.010%, the “% Lutein” value ([2]; in Red Thyme Thymus satureioides oil, Spectrum Botanical, item unspecified) was 1.0% and 1.084% and the “% Lutein” value ([2]; in Red Thyme Thymus vulgaris oil, Spectrum Botanical EO151) was 4.4% and 4.481%. For the same compound, the “% Lutein” value ([2]; in Rosemary, Morrocan oil, Lebermuth 50-6230-03, lot Sample) was 0.637%, the “% Lutein” value ([2]; in Sage, Clary oil, Lebermuth 50-6235-03, lot Sample) was 0.294% and the “% Lutein” value ([2]; in Spearmint oil, Spectrum Botanical EO76) was 1.325%. For the same compound, the “% Lutein” value ([2]; in Spearmint, redistilled oil, Lebermuth 50-6250-11, lot 39SR-0163) was 1.124%, the “% Lutein” value ([2]; in Spearmint, redistilled oil, Lebermuth 50-6250-11, lot Sample) was 1.001% and the “% Lutein” value ([2]; in Tagetes oil, Lebermuth 50-6261-01, lot Sample) was 0.268%. The “% Lutein” value ([2]; in Tea Tree oil, Lebermuth 50-6270-01, lot TX43-0146) was 0.877%, the “% Lutein” value ([2]; in Tea Tree oil, NOW Foods 7625) was 1.084% and the “% Lutein” value ([2]; in Tea Tree oil, NOW Foods 7625, listed as lutein) was “about 1%”. For the same compound, the “% Lutein” value ([2]; in Tea Tree oil, Spectrum Botanical EO80) was 0.942%, the “% Lutein” value ([2]; in Thyme oil, NOW Foods 7635) was 3.582% and the “% Lutein” value ([2]; in Thyme oil, NOW Foods 7635, listed as lutein) was 2.5%. For the same compound, the “% Lutein” value ([2]; in Thyme, Pure oil, Lebermuth 50-6275-04, lot TP41-0053) was 3.453%, the “% Lutein” value ([2]; in Thyme, Red oil, Lebermuth 50-6275-02, lot TR43-0158) was 4.753% and the “% Lutein” value ([2]; in Thyme, White oil, Lebermuth 50-6275-01, lot TLC11-T477) was 3.0% and 3.095%. The “% Lutein” value ([2]; in White Thyme oil (from private source), item unspecified) was 5.068%, the “% Lutein” value ([2]; in White Thyme oil, Spectrum Botanical EO82) was 4.9% and 4.903% and the “% Lutein” value ([2]; in Wintergreen, Natural oil, Lebermuth 50-6285-11, lot Sample) was 0.226%. For the same compound, the “% Lutein” value ([2]; in Wormwood, Natural oil, Lebermuth 50-6290-01, lot Sample) was 0.682%, the lutein solubility ([2]; in citrus oils (white grapefruit, lemon, lime)) was 0.071-0.21% and the lutein solubility ([2]; in grapeseed, almond and apricot kernel oils, NOW Foods) was 0.02-0.03%. For the same compound, the lutein solubility ([2]; in spearmint oil (text comparison with beta-carotene)) was about 1.0%, the lutein solubility ([2]; in thyme oils (red, white, pure)) was 3.0-4.7% and 3.5-5% and 3-5% and the reported solubility ([3]; in canola oil) was 0.029%. For the same compound, the reported solubility ([3]; in corn oil) was 0.042%, the reported solubility ([3]; in safflower oil) was 0.033% and the reported solubility ([3]; in soybean oil) was 0.032%. The “reduction in age-related macular degeneration” value [4] was 57%.
